Measurements published in US20120077737A1, “HEPATITIS C INHIBITOR COMPOUNDS” (priority 2009, published 2012).
Where two headings read alike, the source gives them in different places.

Key:
[1] = tested on: HCV genotype 1b subgenomic replicon with NS3 resistance mutation D168V; assay: HCV replicon RNA replication assay, D168V 1b; assay type: cell-based, HCV genotype 1b (Con-1), Huh-7 cells; conditions: Hepatitis C virus, read-out: D168V 1b Ec50 (nM)
[2] = tested on: HCV genotype 1a subgenomic replicon with NS3 resistance mutation D168V; assay: HCV replicon RNA replication assay, D168V 1a; assay type: cell-based, HCV genotype 1a (strain H77), Huh-7 cells; conditions: Hepatitis C virus, read-out: D168V 1a Ec50 (nM)
[3] = tested on: HCV genotype 1a subgenomic replicon with NS3 resistance mutation R155K; assay: HCV replicon RNA replication assay, R155K 1a; assay type: cell-based, HCV genotype 1a (strain H77), Huh-7 cells; conditions: Hepatitis C virus, read-out: R155K 1a Ec50 (nM)
[4] = tested on: HCVPV1a subgenomic replicon (wild type 1a); assay: HCV replicon RNA replication assay, wild type 1a; assay type: cell-based, HCV genotype 1a (strain H77), Huh-7 cells; conditions: Hepatitis C virus, read-out: WT 1a Ec50
[5] = tested on: HCVPV1b subgenomic replicon (wild type 1b); assay: HCV replicon RNA replication assay, wild type 1b; assay type: cell-based, HCV genotype 1b (Con-1), Huh-7 cells; conditions: Hepatitis C virus, read-out: WT 1b Ec50
[6] = Table 1, luciferase replicon, Huh-7, 72 h
[7] = Table 2, clinical comparators, wildtype genotype 1a
[8] = Table 2, clinical comparators, wildtype genotype 1b

| Structure (SMILES) | EC50 ([1]; Huh-7, 72 h) | EC50 ([2]; Huh-7, 72 h) | EC50 ([3]; Huh-7, 72 h) | EC50 [4, 6] | EC50 [5, 6] | EC50 [1] | EC50 [2] | EC50 [3] | EC50 [4, 7] | EC50 [5, 8] |
| --- | --- | --- | --- | --- | --- | --- | --- | --- | --- | --- |
| COc1c(F)ccc2c(O[C@@H]3C[C@H]4C(=O)N[C@]5(C(=O)NS(=O)(=O)C6(C)CC6)C[C@H]5/C=C\CCCCC[C@H](NC(=O)c5ccn(CC(F)F)n5)C(=O)N4C3)cc(OC(C)C)nc12 [Compound 1022, (2R,6S,12Z,13aS,14aR,16aS)-6-({[1-(2,2-difluoroethyl)-1H-pyrazol-3-yl]carbonyl}amino)-2-{[7-fluoro-8-methoxy-2-(propan-2-yloxy)quinolin-4-yl]oxy}-N-[(1-methylcyclopropyl)sulfonyl]-5,16-dioxo-1,2,3,6,7,8,9,10,11,13a,14,15,16,16a-tetradecahydrocyclopropa[e]pyrrolo[1,2-a][1,4]diazacyclopentadecine-14a(5H)-carboxamide] | 0.62 nM | 0.97 nM | 1.3 nM | 0.42 nM | 0.41 nM |  |  |  |  |  |
| COc1c(F)ccc2c(O[C@@H]3C[C@H]4C(=O)N[C@]5(C(=O)NS(=O)(=O)C6(C)CC6)C[C@H]5/C=C\CCCCC[C@H](NC(=O)c5ccn(C(C)C)n5)C(=O)N4C3)cc(OC(C)C)nc12 [Compound 1023, (2R,6S,12Z,13aS,14aR,16aS)-2-{[7-fluoro-8-methoxy-2-(propan-2-yloxy)quinolin-4-yl]oxy}-N-[(1-methylcyclopropyl)sulfonyl]-5,16-dioxo-6-({[1-(propan-2-yl)-1H-pyrazol-3-yl]carbonyl}amino)-1,2,3,6,7,8,9,10,11,13a,14,15,16,16a-tetradecahydrocyclopropa[e]pyrrolo[1,2-a][1,4]diazacyclopentadecine-14a(5H)-carboxamide] | 0.52 nM | 0.83 nM | 3.1 nM | 0.37 nM | 0.4 nM |  |  |  |  |  |
| Cc1ccc2c(O[C@@H]3C[C@H]4C(=O)N[C@]5(C(=O)NS(=O)(=O)C6(C)CC6)C[C@H]5/C=C\CCCCC[C@H](NC(=O)c5ccn(C)n5)C(=O)N4C3)cc(OC(C)C)nc2c1Br [Compound 1024, (2R,6S,12Z,13aS,14aR,16aS)-2-{[8-bromo-7-methyl-2-(propan-2-yloxy)quinolin-4-yl]oxy}-N-[(1-methylcyclopropyl)sulfonyl]-6-{[(1-methyl-1H-pyrazol-3-yl)carbonyl]amino}-5,16-dioxo-1,2,3,6,7,8,9,10,11,13a,14,15,16,16a-tetradecahydrocyclopropa[e]pyrrolo[1,2-a][1,4]diazacyclopentadecine-14a(5H)-carboxamide] | 0.09 nM | 1.9 nM | 9.3 nM | 0.1 nM | 0.13 nM |  |  |  |  |  |
| CC(C)Oc1cc(O[C@@H]2C[C@H]3C(=O)N[C@]4(C(=O)NS(=O)(=O)C5(C)CC5)C[C@H]4/C=C\CCCCC[C@H](NC(=O)c4ccn(C)n4)C(=O)N3C2)c2ccc(Cl)c(Cl)c2n1 [Compound 1025, (2R,6S,12Z,13aS,14aR,16aS)-2-{[7,8-dichloro-2-(propan-2-yloxy)quinolin-4-yl]oxy}-N-[(1-methylcyclopropyl)sulfonyl]-6-{[(1-methyl-1H-pyrazol-3-yl)carbonyl]amino}-5,16-dioxo-1,2,3,6,7,8,9,10,11,13a,14,15,16,16a-tetradecahydrocyclopropa[e]pyrrolo[1,2-a][1,4]diazacyclopentadecine-14a(5H)-carboxamide] | 0.11 nM | 3.8 nM | 9.3 nM | 0.22 nM | 0.17 nM |  |  |  |  |  |
| COc1c(F)ccc2c(O[C@@H]3C[C@H]4C(=O)N[C@]5(C(=O)NS(=O)(=O)C6(C)CC6)C[C@H]5/C=C\CCCCC[C@H](NC(=O)c5ccn(CC(F)(F)F)n5)C(=O)N4C3)cc(OC(C)C)nc12 [Compound 1026, (2R,6S,12Z,13aS,14aR,16aS)-2-{[7-fluoro-8-methoxy-2-(propan-2-yloxy)quinolin-4-yl]oxy}-N-[(1-methylcyclopropyl)sulfonyl]-5,16-dioxo-6-({[1-(2,2,2-trifluoroethyl)-1H-pyrazol-3-yl]carbonyl}amino)-1,2,3,6,7,8,9,10,11,13a,14,15,16,16a-tetradecahydrocyclopropa[e]pyrrolo[1,2-a][1,4]diazacyclopentadecine-14a(5H)-carboxamide] | 0.34 nM | 0.7 nM | 1.6 nM | 0.52 nM | 0.31 nM |  |  |  |  |  |
| COc1c(F)ccc2c(O[C@@H]3C[C@H]4C(=O)N[C@]5(C(=O)NS(=O)(=O)C6(C)CC6)C[C@H]5/C=C\CCCCC[C@H](NC(=O)c5ccn(C(F)F)n5)C(=O)N4C3)cc(OC(C)C)nc12 [Compound 1027, (2R,6S,12Z,13aS,14aR,16aS)-6-({[1-(difluoromethyl)-1H-pyrazol-3-yl]carbonyl}amino)-2-{[7-fluoro-8-methoxy-2-(propan-2-yloxy)quinolin-4-yl]oxy}-N-[(1-methylcyclopropyl)sulfonyl]-5,16-dioxo-1,2,3,6,7,8,9,10,11,13a,14,15,16,16a-tetradecahydrocyclopropa[e]pyrrolo[1,2-a][1,4]diazacyclopentadecine-14a(5H)-carboxamide] | 0.39 nM | 2.2 nM | 4.7 nM | 0.47 nM | 0.33 nM |  |  |  |  |  |
| COc1c(F)ccc2c(O[C@@H]3C[C@H]4C(=O)N[C@]5(C(=O)NS(=O)(=O)C6(C)CC6)C[C@H]5/C=C\CCCCC[C@H](NC(=O)c5ccc(C)s5)C(=O)N4C3)cc(OC(C)C)nc12 [Compound 1028, (2R,6S,12Z,13aS,14aR,16aS)-2-{[7-fluoro-8-methoxy-2-(propan-2-yloxy)quinolin-4-yl]oxy}-N-[(1-methylcyclopropyl)sulfonyl]-6-{[(5-methylthiophen-2-yl)carbonyl]amino}-5,16-dioxo-1,2,3,6,7,8,9,10,11,13a,14,15,16,16a-tetradecahydrocyclopropa[e]pyrrolo[1,2-a][1,4]diazacyclopentadecine-14a(5H)-carboxamide] | 0.52 nM | 5.5 nM | 6.5 nM | 1.1 nM | 0.69 nM |  |  |  |  |  |
| CC(C)(C)OC(=O)N[C@H]1CCCCC/C=C\[C@@H]2C[C@@]2(C(=O)NS(=O)(=O)C2CC2)NC(=O)[C@@H]2C[C@@H](OC(=O)N3Cc4cccc(F)c4C3)CN2C1=O [reference compound] |  |  |  |  |  | 120 nM | 180 nM | 690 nM | 2.1 nM | 5.4 nM |
| COc1ccc2c(O[C@@H]3C[C@H]4C(=O)N[C@@]5(C(=O)NS(=O)(=O)C6CC6)C[C@@H]5/C=C\CCCCN(C)C(=O)[C@@H]4C3)cc(-c3nc(C(C)C)cs3)nc2c1C [reference compound] |  |  |  |  |  | 4400 nM | 3500 nM | 300 nM | 0.7 nM | 1.2 nM |
